The source of these data is patent US7897593B2, “HIV integrase inhibitors” (priority 2006, dated 2011).

By IC50 is commonly meant the concentration that gives 50% inhibition.

A value given as a limit tells only on which side of the number the result lay.

The test system of assay [1] is recombinant NL-Rluc virus. The assay is described as follows: Inhibition of HIV replication. The format is cell-based. Conditions: Human immunodeficiency virus 1, read-out: Antiviral Activity, NL-RLuc virus; three serum conditions described, the one tabulated is not stated.
Assay [2] concerns the target T1, HIV-integrase (Human immunodeficiency virus type 1 group M subtype B, UniProt P12497).
T1 construct: Recombinant integrase (0.26 ng) was incubated with the beads
The assay is described as follows: HIV-Integrase Inhibition Activity (SPA strand transfer assay). The format is biochemical. Conditions: recombinant integrase, SPA beads, P33 labeled target DNA. How it is done: HIV-Integrase InhibitionActivity. To evaluate in-vitro activity against HIV-integrase, 5 pmole of biotin labeled substrate DNA was bound to 100 μg of Streptavidin coated PVT SPA beads (Amersham Pharmacia Biotech). Recombinant integrase (0.26 ng) was incubated with the beads for 90 min at 37° C. Unbound enzyme was removed by washing the complex followed by addition of inhibitors and 0.1 fmol of P33 labeled target DNA. The reaction was stopped by adding EDTA to a final concentration of 10 mM. Samples were counted in TopCountNXT (Packard) and the CPM was used as a measure of integration. The reaction condition was as described in A. Engelman and R. Craigie, J. Virol 69, 5908-5911 (1995). The sequences of substrate and target DNA were described in Nucleic Acid Research 22, 1121-1122 (1994). Activity equal to A refers to a compound having IC50=0.001 to 0.01 μM B=0.01-0.1, and C≧0.1 μM respectively.

Take `CN(C)S(=O)(=O)N1CCC2(CC1)OCCn1c2nc(C(=O)NCc2ccc(F)cc2-n2cncn2)c(O)c1=O` [Example 1, 1-(N,N-Dimethylsulfamoyl)-N-(4-fluoro-2-(1H-1,2,4-triazol-1-yl)benzyl)-3′-hydroxy-4′-oxo-6′,7′-dihydro-4′H-spiro[piperidine-4,9′-pyrimido[2,1-c][1,4]oxazine]-2′-carboxamide]: in assay [1], the EC50 is 1 to 10 nM. The IC50 in assay [2] was in the range of 1 to 10 nM.
Take `CN(C)S(=O)(=O)N1CCC2(CC1)OCCn1c2nc(C(=O)NCc2ccc(F)cc2)c(O)c1=O` [Example 2]: in assay [1], the EC50 lay in the range of 1 to 10 nM. The half-inhibitory concentration (IC50) in assay [2] was in the range of 1 to 10 nM.
As for `COC(=O)N1CCC2(CC1)OCCn1c2nc(C(=O)NCc2ccc(F)cc2-n2cncn2)c(O)c1=O` [Example 3], the EC50 in assay [1] was 1 to 10 nM. Also, the half-inhibitory concentration (IC50) in assay [2] lay in the range of 1 to 10 nM.
`COC(=O)N1CCC2(CC1)OCCn1c2nc(C(=O)NCc2ccc(F)cc2)c(O)c1=O` [Example 4]: the EC50 in assay [1] lay within 1 to 10 nM. For the same compound, the 50% inhibitory concentration (IC50) in assay [2] was 1 to 10 nM.
For `CN(C)C(=O)N1CCC2(CC1)OCCn1c2nc(C(=O)NCc2ccc(F)cc2-n2cncn2)c(O)c1=O` [Example 5], the EC50 in assay [1] lay in the range of 1 to 10 nM. Also, in assay [2], the IC50 was in the range of 1 to 10 nM.
With `CN(C)C(=O)N1CCC2(CC1)OCCn1c2nc(C(=O)NCc2ccc(F)cc2)c(O)c1=O` [Example 6], the EC50 in assay [1] fell in the range of 1 to 10 nM. Besides, the IC50 in assay [2] fell in the range of 1 to 10 nM.
Take `CS(=O)(=O)N1CCC2(CC1)OCCn1c2nc(C(=O)NCc2ccc(F)cc2-n2cncn2)c(O)c1=O` [Example 7]: the EC50 in assay [1] was 1 to 10 nM. Further, the IC50 in assay [2] lay within 1 to 10 nM.
With `CS(=O)(=O)N1CCC2(CC1)OCCn1c2nc(C(=O)NCc2ccc(F)cc2)c(O)c1=O` [Example 8], the EC50 in assay [1] lay in the range of 1 to 10 nM. Besides, in assay [2], the 50% inhibitory concentration (IC50) is 1 to 10 nM.
As for `O=C(NCc1ccc(F)cc1-n1cncn1)c1nc2n(c(=O)c1O)CCOC21CCN(C(=O)c2ccccc2)CC1` [Example 9], the EC50 in assay [1] was 1 to 10 nM. In assay [2], the IC50 was 10 to 100 nM.
In the same order, the values of `O=C(NCc1ccc(F)cc1)c1nc2n(c(=O)c1O)CCOC21CCN(C(=O)c2ccccc2)CC1` [Example 10] are 1 to 10 nM and 10 to 100 nM.
The matching figures for `Cc1ccc(S(=O)(=O)N2CCC3(CC2)OCCn2c3nc(C(=O)NCc3ccc(F)cc3-n3cncn3)c(O)c2=O)cc1` [Example 11]: 1 to 10 nM and 1 to 10 nM.
With `Cc1ccc(S(=O)(=O)N2CCC3(CC2)OCCn2c3nc(C(=O)NCc3ccc(F)cc3)c(O)c2=O)cc1` [Example 12], the EC50 in assay [1] fell in the range of 1 to 10 nM. Moreover, in assay [2], the IC50 lay in the range of 10 to 100 nM.
Turning to `Cc1ccc(S(=O)(=O)N2CCC3(CC2)OCCn2c3nc(C(=O)NC(C)c3ccc(F)cc3)c(O)c2=O)cc1` (centres unmarked) [Example 13], the EC50 in assay [1] fell in the range of 10 to 100 nM. Also, the IC50 in assay [2] is 10 to 100 nM.
Regarding `Cc1ccc(S(=O)(=O)N2CCC3(CC2)OCCn2c3nc(C(=O)NCc3ccc(F)cc3S(=O)(=O)N3CCOCC3)c(O)c2=O)cc1` [Example 14], in assay [1], the EC50 was in the range of 1 to 10 nM. Also, the concentration for half-maximal inhibition (IC50) in assay [2] lay in the range of 10 to 100 nM.
The matching figures for `Cc1ccc(S(=O)(=O)N2CCC3(CC2)OCCn2c3nc(C(=O)NCc3ccc(F)cc3-n3cnc(C)n3)c(O)c2=O)cc1` [Example 15]: 1 to 10 nM and 10 to 100 nM.
`Cc1ccc(S(=O)(=O)N2CCC3(CC2)OCCn2c3nc(C(=O)NCc3ccc(F)cc3-n3ncnc3C)c(O)c2=O)cc1` [Example 16]: the EC50 in assay [1] was in the range of 1 to 10 nM. Further, the IC50 in assay [2] lay in the range of 10 to 100 nM.
In the same order, the values of `Cc1ccc(S(=O)(=O)N2CCC3(CC2)OCCn2c3nc(C(=O)NCc3ccc(F)cc3-n3nc(C)nc3C)c(O)c2=O)cc1` [Example 17] are 1 to 10 nM and 10 to 100 nM.
In the case of `Cc1ccc(F)cc1S(=O)(=O)N1CCC2(CC1)OCCn1c2nc(C(=O)NCc2ccc(F)cc2)c(O)c1=O` [Example 18], in assay [1], the EC50 is 1 to 10 nM. Moreover, the concentration for half-maximal inhibition (IC50) in assay [2] was 1 to 10 nM.
`Cc1ccc(F)cc1S(=O)(=O)N1CCC2(CC1)OCCn1c2nc(C(=O)NCc2ccc(F)cc2-n2cncn2)c(O)c1=O` [Example 19]: the EC50 in assay [1] was in the range of 1 to 10 nM. The IC50 in assay [2] lay within 1 to 10 nM.
Regarding `Cc1ncn(-c2cc(F)ccc2CNC(=O)c2nc3n(c(=O)c2O)CCOC32CCN(S(=O)(=O)c3cc(F)ccc3C)CC2)n1` [Example 20], in assay [1], the EC50 was in the range of 1 to 10 nM. The IC50 in assay [2] lay within 1 to 10 nM.
Regarding `Cc1ccc(F)cc1S(=O)(=O)N1CCC2(CC1)OCCn1c2nc(C(=O)NCc2ccc(F)cc2-n2ncnc2C)c(O)c1=O` [Example 21], the EC50 in assay [1] was in the range of 1 to 10 nM. Further, the IC50 in assay [2] was in the range of 10 to 100 nM.
In the case of `O=C(NCc1ccc(F)cc1)c1nc2n(c(=O)c1O)CCOC21CCN(C(=O)OCc2ccccc2)CC1` [Example 22], the EC50 in assay [1] lay within 1 to 10 nM. Also, the IC50 in assay [2] lay in the range of 1 to 10 nM.
Turning to `Cc1ncnn1-c1cc(F)ccc1CNC(=O)c1nc2n(c(=O)c1O)CCOC21CCN(C(=O)OCc2ccccc2)CC1` [Example 23], in assay [1], the EC50 is 1 to 10 nM. For the same compound, the half-maximal inhibitory concentration (IC50) in assay [2] lay in the range of 10 to 100 nM.
In the same order, the values of `CNC(=O)c1nc2n(c(=O)c1O)CCOC21CCN(S(=O)(=O)c2cc(F)ccc2C)CC1` [Example 25, 1-(5-Fluoro-2-methylphenylsulfonyl)-3′-hydroxy-N-methyl-4′-oxo-6′,7′-dihydro-4′H-spiro[piperidine-4,9′-pyrimido[2,1-c][1,4]oxazine]-2′-carboxamide] are over 100 nM and at least 100 nM.
The matching figures for `COC(=O)C(=O)N1CCC2(CC1)OCCn1c2nc(C(=O)NCc2ccc(F)cc2-n2ncnc2C)c(O)c1=O` [Example 26, Methyl 2-(2′-(4-fluoro-2-(5-methyl-1H-1,2,4-triazol-1-yl)benzylcarbamoyl)-3′-hydroxy-4′-oxo-6′,7′-dihydro-4′H-spiro[piperidine-4,9′-pyrimido[2,1-c][1,4]oxazine]-1-yl)-2-oxoacetate]: 10 to 100 nM and 10 to 100 nM.
As to `Cc1ncnn1-c1cc(F)ccc1CNC(=O)c1nc2n(c(=O)c1O)CCOC21CCN(C(=O)C(=O)N(C)C)CC1` [Example 27, 1-(2-(Dimethylamino)-2-oxoacetyl)-N-(4-fluoro-2-(5-methyl-1H-1,2,4-triazol-1-yl)benzyl)-3′-hydroxy-4′-oxo-6′,7′-dihydro-4′H-spiro[piperidine-4,9′-pyrimido[2,1-c][1,4]oxazine]-2′-carboxamide], the EC50 in assay [1] was over 100 nM. Also, the half-inhibitory concentration (IC50) in assay [2] is 10 to 100 nM.
Take `COC(=O)C(=O)N1CCC2(CC1)OCCn1c2nc(C(=O)NCc2ccc(F)cc2)c(O)c1=O` [Example 28, Methyl 2-(2′-(4-fluorobenzylcarbamoyl)-3′-hydroxy-4′-oxo-6′,7′-dihydro-4′H-spiro[piperidine-4,9′-pyrimido[2,1-c][1,4]oxazine]-1-yl)-2-oxoacetate]: the EC50 in assay [1] fell in the range of 10 to 100 nM. In assay [2], the IC50 lay within 1 to 10 nM.
Regarding `O=C(O)C(=O)N1CCC2(CC1)OCCn1c2nc(C(=O)NCc2ccc(F)cc2)c(O)c1=O` [Example 29, 2-(2′-(4-Fluorobenzylcarbamoyl)-3′-hydroxy-4′-oxo-6′,7′-dihydro-4′H-spiro[piperidine-4,9′-pyrimido[2,1-c][1,4]oxazine]-1-yl)-2-oxoacetic acid], the EC50 in assay [1] is over 100 nM. In addition, the half-inhibitory concentration (IC50) in assay [2] is 1 to 10 nM.
